What all share (experiment): Binding assays for FABP3, FABP4, FABP5 and FABP7
Assay [1] concerns the target Fatty acid-binding protein 5 (Homo sapiens, UniProt Q01469). As to the method: (§1) Binding assays for FABP3, FABP4, FABP5 and FABP7 were carried out by fluorescence titrations. His-tagged FABPs were bacterially expressed in E. coli, purified using Ni Sepharose beads, and the equilibrium dissociation constants (Kd) that characterize their interactions with different inhibitor compounds were measured by fluorescence competition assays. The method entails two steps as described in e.g., Lin, Q. et al., “Ligand selectivity of the peroxisome proliferator-activated receptor alpha,” Biochemistry 38, 185-190, doi:10.1021/bi9816094 [pii](1999). In the first step, Kd for the association of the protein with the fluorescent fatty acid probe ANS was measured. Protein (2 μM) was titrated with ANS from a concentrated solution in DMSO. Ligand binding was monitored by following the increase in the fluorescence of the ligand upon binding to the protein, and Kd for the association of ANS with the each FABP was computed from titration curves as described in e.g., Norris, A. W. & Li, E., “Fluorometric titration of the CRABPs,” Methods Mol Biol 89, 123-139 (1998)). In the second step, Kds for binding of non-fluorescent ligands were measured by monitoring their ability to displace ANS in the binding pocket of the protein.

Assay [2] addresses Fatty acid-binding protein, brain (FABP7) (Homo sapiens, UniProt O15540). As for the experimental part:
as §1

In assay [3] the target is Fatty acid-binding protein, heart (Homo sapiens, UniProt P05413). As for the experimental part: as §1
In assay [4] the target is Fatty acid-binding protein, adipocyte (Homo sapiens, UniProt P15090). As to the method: as §1

One compound from BindingDB's records for patent US20250325529 (Celloram, 2025) can be followed below.

For orientation: Kd means a measure of binding affinity in units of concentration.

Fatty acid-binding protein, adipocyte, sequence (P15090 whole entry): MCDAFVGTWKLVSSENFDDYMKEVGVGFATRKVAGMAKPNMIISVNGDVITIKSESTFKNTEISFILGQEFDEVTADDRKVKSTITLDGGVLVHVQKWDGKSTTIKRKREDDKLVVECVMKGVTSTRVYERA
Fatty acid-binding protein 5, sequence (Q01469 whole entry): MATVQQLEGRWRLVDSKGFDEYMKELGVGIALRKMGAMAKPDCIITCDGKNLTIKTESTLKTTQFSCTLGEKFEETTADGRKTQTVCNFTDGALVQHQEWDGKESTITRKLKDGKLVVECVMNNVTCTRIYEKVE
Fatty acid-binding protein, heart, sequence (P05413 whole entry): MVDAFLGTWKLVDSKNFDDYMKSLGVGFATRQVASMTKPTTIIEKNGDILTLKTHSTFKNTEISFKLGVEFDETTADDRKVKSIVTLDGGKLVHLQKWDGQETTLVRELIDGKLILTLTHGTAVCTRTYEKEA
Fatty acid-binding protein, brain (FABP7), sequence (O15540 whole entry): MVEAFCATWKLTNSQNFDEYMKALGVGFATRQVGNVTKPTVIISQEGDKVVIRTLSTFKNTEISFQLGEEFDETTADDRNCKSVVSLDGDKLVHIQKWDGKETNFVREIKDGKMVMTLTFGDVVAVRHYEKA

For `CC(C)Oc1nc(NC(=O)CC(C)(C)CC(=O)O)c(Cl)cc1Cl` [US20250325529, ID PD154], the Kd in assay [1] stood at 11 nM; in assay [2], 43 nM; in assay [3] it was 60.8 nM; in assay [4], 14 nM.
